In one data set the target is T1, CYP2D6 (Homo sapiens, UniProt P10635).
T1 construct: purchased Gentest
As to the kind of experiment: Inhibition of human cytochromes, fluorescent substrates. The class given is in vitro ADME. The settings on record: isoenzyme (Gentest), 37° C. The procedure: (§1) Experiment B: Inhibition of Human Cytochromes by Compounds of the Formula (I)
(§2) Inhibition of the enzymatic activity of the most significant isoforms of human cytochromes by the compounds of the formula (I) was measured by using specific substrates which become fluorescent as a result of the metabolic action of a particular cytochrome isoform. The individual isoenzymes (Gentest) and the respective substrates were incubated in 96 well plates in buffer containing […] at 37° C. in the presence or absence of the compound under investigation. […] The degree of inhibition of each individual isoenzyme by known inhibitors was also assessed as a positive control.

A further data set addresses T2, CYP2C9 (Homo sapiens, UniProt P11712).
T2 construct: purchased Gentest
The description is as above. As to conditions: isoenzyme (Gentest), 37° C. Type of data set: in vitro ADME. The procedure:
as §1, §2

The target in another data set is T3, CYP1A2 (Homo sapiens, UniProt P05177).
T3 construct: purchased Gentest
T3 sequence (P05177 1-516): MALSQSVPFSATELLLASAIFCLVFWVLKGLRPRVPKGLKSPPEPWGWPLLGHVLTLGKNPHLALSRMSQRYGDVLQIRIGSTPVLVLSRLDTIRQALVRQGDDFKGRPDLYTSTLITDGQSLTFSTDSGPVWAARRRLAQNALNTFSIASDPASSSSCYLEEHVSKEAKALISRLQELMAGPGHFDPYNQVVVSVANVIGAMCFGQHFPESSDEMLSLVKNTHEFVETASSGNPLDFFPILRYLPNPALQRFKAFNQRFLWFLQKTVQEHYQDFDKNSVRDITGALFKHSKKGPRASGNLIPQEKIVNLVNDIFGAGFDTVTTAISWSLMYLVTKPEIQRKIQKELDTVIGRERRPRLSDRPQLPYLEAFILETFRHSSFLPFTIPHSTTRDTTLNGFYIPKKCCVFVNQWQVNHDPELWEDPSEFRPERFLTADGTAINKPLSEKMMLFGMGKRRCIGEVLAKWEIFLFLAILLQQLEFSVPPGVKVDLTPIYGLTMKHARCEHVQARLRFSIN
The data set is described as above. Type of data set: in vitro ADME. The settings on record: isoenzyme (Gentest), 37° C. Here is the method:
as §1, §2

The target of the next data set is T4, CYP2C19 (Homo sapiens, UniProt P33261).
T4 construct: purchased Gentest
The data set is described as above. Type of data set: in vitro ADME. As to conditions: isoenzyme (Gentest), 37° C. The procedure:
as §1, §2

Another data set deals with Aspergillus fumigatus. Put plainly: Antifungal activity, liquid phase microdilution (NCCLS M27/M38-P). The settings on record: for IC50: Aspergillus fumigatus. Type of data set: cell-based. On the set-up: IC50 (minimum concentration to bring about 50% inhibition): unit not given here. The procedure: (§3) Experiment A: Antifungal Activity of Compounds of the Formula (I)
(§4) The antifungal activity of the compounds of the formula (I) was determined using various strains of yeast and filamentous fungi. […] Table no.

In a further data set the target is T5, CYP3A4 (Homo sapiens, UniProt P08684).
T5 construct: purchased Gentest
Put plainly: Inhibition of human cytochromes, fluorescent substrates. The class given is in vitro ADME. As to conditions: isoenzyme (Gentest), 37° C. Here is the method: as §1
The individual isoenzymes (Gentest) and the respective substrates were incubated in 96 well plates in buffer containing […] at 37° C. in the presence or absence of the compound under investigation. […] The degree of inhibition of each individual isoenzyme by known inhibitors was also assessed as a positive control.

For a further data set, the system named is Candida parapsilosis. Put plainly: Antifungal activity, liquid phase microdilution (NCCLS M27/M38-P). The class given is cell-based. As to conditions: for IC50 (minimum concentration to bring about 50% inhibition): Candida parapsilosis strain ATCC22019. The procedure: as §3, §4
In data set [1] the test system is Candida albicans. Described as above. The class given is cell-based. The procedure:
as §3, §4

For a further data set, the system named is Candida glabrata. The data set is described as above. As to conditions: for IC50 (minimum concentration to bring about 50% inhibition): Candida glabrata strain 02-0902. Type of data set: cell-based. The procedure:
as §3, §4

The test system of data set [2] is Candida albicans. Put plainly: Mouse model of systemic candidiasis, survival. As to conditions: for Average survival (days) ± S.D.: observed until day 30. Type of data set: in vivo, CD1 mice. Here is the method:
Experiment C: Study of the Efficacy of Compounds of the Formula (I) in a Mouse Model of Systemic Candidiasis.
The C. albicans isolate was cultured for 24 h in yeast dextrose broth. The blastospores were recovered by centrifugation, repeatedly washed in sterile saline solution and the inoculum adjusted to the desired concentration. The inoculum was verified by a subsequent count of CFU/ml on Sabouraud plates.
The mice were then inoculated intravenously (0.2 ml/mouse).
24 hours after inoculation with C. albicans, the animals were randomised into the following treatment groups (10 mice/group): • 1. […] Compound under investigation: 50 mg/kg/day (two 25 mg/kg treatments twice daily at 12 hour intervals) • 3. Compound under investigation; 10 mg/kg/day (two 5 mg/kg treatments twice daily at 12 hour intervals) • 4. Control (placebo)
The compounds were administered orally (suspension in PEG 200, 0.2 ml/mouse) for 10 consecutive days and the animals were observed until day 30. The survival curves between the various treatment groups and between these groups and the control group were evaluated using the Kaplan-Meier method.

Setting [3] is: Aspergillus fumigatus strain 99-2135.
[4] abbreviates: 50 mg/kg/day orally (25 mg/kg twice daily) for 10 days.
[5] abbreviates: 10 mg/kg/day orally (5 mg/kg twice daily) for 10 days.

≈ marks a conversion by molar mass, not a printed value. Read-outs that look alike come from different tables or passages of the source.

T2 sequence (P11712 whole entry): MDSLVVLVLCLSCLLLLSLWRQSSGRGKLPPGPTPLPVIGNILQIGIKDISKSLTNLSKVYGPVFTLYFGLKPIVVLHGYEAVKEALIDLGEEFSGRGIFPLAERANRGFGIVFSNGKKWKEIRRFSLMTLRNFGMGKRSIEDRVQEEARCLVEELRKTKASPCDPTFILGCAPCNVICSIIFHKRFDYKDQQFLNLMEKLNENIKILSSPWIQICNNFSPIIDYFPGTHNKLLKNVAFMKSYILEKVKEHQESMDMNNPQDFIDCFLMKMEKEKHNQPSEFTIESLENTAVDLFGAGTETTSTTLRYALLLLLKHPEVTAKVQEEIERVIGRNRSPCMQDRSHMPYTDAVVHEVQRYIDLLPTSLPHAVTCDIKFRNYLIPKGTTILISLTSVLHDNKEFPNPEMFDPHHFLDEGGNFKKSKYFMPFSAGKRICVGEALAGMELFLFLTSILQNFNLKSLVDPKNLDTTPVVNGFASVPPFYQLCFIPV
T5 sequence (P08684 whole entry): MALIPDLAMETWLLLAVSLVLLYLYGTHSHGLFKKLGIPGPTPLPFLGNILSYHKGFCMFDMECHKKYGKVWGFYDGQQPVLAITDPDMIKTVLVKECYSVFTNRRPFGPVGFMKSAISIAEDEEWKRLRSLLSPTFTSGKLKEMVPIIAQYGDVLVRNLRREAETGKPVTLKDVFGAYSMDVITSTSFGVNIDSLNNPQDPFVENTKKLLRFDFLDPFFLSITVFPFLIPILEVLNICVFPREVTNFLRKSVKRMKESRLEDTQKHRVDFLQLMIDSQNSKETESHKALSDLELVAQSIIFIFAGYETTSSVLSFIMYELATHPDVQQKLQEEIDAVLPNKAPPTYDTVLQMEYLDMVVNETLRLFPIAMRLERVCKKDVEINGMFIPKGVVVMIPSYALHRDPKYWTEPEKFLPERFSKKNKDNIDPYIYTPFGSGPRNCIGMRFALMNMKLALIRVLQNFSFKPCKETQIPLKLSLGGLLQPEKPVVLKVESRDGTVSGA
T1 sequence (P10635 whole entry): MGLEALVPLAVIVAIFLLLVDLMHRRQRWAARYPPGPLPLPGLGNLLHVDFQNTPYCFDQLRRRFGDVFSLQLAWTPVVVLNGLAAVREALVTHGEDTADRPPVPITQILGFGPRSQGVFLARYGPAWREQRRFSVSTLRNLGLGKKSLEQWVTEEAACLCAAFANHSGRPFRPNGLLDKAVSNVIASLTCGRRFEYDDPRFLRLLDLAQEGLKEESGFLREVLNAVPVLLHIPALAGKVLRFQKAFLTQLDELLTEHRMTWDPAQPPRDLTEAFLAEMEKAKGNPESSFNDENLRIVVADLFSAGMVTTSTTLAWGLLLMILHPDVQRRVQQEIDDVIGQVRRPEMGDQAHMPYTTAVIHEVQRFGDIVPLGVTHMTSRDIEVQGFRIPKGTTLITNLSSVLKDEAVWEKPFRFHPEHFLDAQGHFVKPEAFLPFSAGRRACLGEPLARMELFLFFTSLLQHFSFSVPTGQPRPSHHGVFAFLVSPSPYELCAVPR
T4 sequence (P33261 whole entry): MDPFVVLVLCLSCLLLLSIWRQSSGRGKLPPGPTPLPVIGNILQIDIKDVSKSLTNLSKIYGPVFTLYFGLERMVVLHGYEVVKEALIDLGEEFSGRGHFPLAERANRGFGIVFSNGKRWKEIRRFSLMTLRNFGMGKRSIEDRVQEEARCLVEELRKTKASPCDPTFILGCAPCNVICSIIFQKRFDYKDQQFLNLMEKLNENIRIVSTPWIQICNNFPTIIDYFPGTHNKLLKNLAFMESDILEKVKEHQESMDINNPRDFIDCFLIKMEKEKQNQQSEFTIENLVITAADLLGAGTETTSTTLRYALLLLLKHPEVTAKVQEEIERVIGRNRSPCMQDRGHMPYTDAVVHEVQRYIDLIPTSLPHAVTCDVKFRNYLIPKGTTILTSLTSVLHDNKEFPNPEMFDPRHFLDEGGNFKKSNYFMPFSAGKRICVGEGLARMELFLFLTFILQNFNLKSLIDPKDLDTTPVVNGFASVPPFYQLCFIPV

Regarding `CC[C@H](C)n1ncn(-c2ccc(N3CCN(c4ccc(OC[C@H]5CO[C@@](Cn6cncn6)(c6ccccn6)O5)cc4)CC3)cc2)c1=O` (relative stereo) [Example 13, cis(−)-4-{4-[4-{4-[2-(pyridin-2-yl)-2-(1H-1,2,4-triazol-1-yl-methyl)-1,3-dioxolan-4-yl-methoxy]phenyl}piperazin-1-yl]-phenyl}-2-[(1,S)-1-methylpropyl]-2,4-dihydro-3H-1,2,4-triazol-3-one], the IC50 was above 100 µM at CYP2D6; 27.2 ± 6.7 µM against CYP2C9; above 100 µM on CYP1A2; 28.4 ± 8.8 µM at CYP2C19; 0.46 ± 0.37 µM at CYP3A4. The “IC50 (minimum concentration to bring about 50% inhibition)” value with Aspergillus fumigatus (setting [3]) was 0.25; with Candida parapsilosis, “≦0.03 mg/ml”; with Candida albicans [1] (Candida albicans strain gen-45), “≦0.03 mg/ml”; in the data set on Candida glabrata, 1000 µg/mL (≈ 1570 µM).

Regarding `CC[C@H](C)n1ncn(-c2ccc(N3CCN(c4ccc(OC[C@H]5CO[C@@](Cn6cncn6)(c6ccccn6)O5)cc4)CC3)cc2)c1=O` (relative stereo) [Example 14, cis(+)-4-{4-[4-{4-[2-(pyridin-2-yl)-2-(1H-1,2,4-triazol-1-yl-methyl)-1,3-dioxolan-4-yl-methoxy]phenyl}piperazin-1-yl]-phenyl}-2-[(1,S)-1-methylpropyl]-2,4-dihydro-3H-1,2,4-triazol-3-one], the IC50 was above 100 µM on CYP2D6; 40 ± 11.2 µM on CYP2C9; above 100 µM against CYP1A2; 27.9 ± 0.8 µM against CYP2C19; 0.19 ± 0.08 µM against CYP3A4. The “IC50 (minimum concentration to bring about 50% inhibition)” value in the data set with Aspergillus fumigatus (setting [3]) was 0.5; in the data set with Candida parapsilosis, 0.06; in the data set on Candida albicans [1] (Candida albicans strain gen-45) it was “≦0.03 mg/ml”; with Candida glabrata it was 2000 µg/mL (≈ 3140 µM).

In the case of `CC[C@@H](C)n1ncn(-c2ccc(N3CCN(c4ccc(OC[C@H]5CO[C@@](Cn6cncn6)(c6ccccn6)O5)cc4)CC3)cc2)c1=O` (relative stereo) [Example 15, cis(−)-4-{4-[4-{4-[2-(pyridin-2-yl)-2-(1H-1,2,4-triazol-1-yl-methyl)-1,3-dioxolan-4-yl-methoxy]phenyl}piperazin-1-yl]-phenyl}-2-[(1,R)-1-methylpropyl]-2,4-dihydro-3H-1,2,4-triazol-3-one], the IC50 against CYP2D6 was 84 ± 39.4 µM; against CYP2C9 it was 26.1 ± 1.3 µM; against CYP1A2, above 100 µM; at CYP2C19, 25.5 ± 4.3 µM; against CYP3A4, 0.41 ± 0.13 µM. In addition, the “IC50 (minimum concentration to bring about 50% inhibition)” value in the data set on Aspergillus fumigatus (setting [3]) was 0.12; in the data set on Candida parapsilosis, “≦0.03 mg/ml”; in the data set on Candida albicans [1] (Candida albicans strain gen-45), “≦0.03 mg/ml”; with Candida glabrata, 250 µg/mL (≈ 392 µM).

With `CC[C@@H](C)n1ncn(-c2ccc(N3CCN(c4ccc(OC[C@H]5CO[C@@](Cn6cncn6)(c6ccccn6)O5)cc4)CC3)cc2)c1=O` (relative stereo) [Example 16, cis(+)-4-{4-[4-{4-[2-(pyridin-2-yl)-2-(1H-1,2,4-triazol-1-yl-methyl)-1,3-dioxolan-4-yl-methoxy]phenyl}piperazin-1-yl]-phenyl}-2-[(1,R)-1-methylpropyl]-2,4-dihydro-3H-1,2,4-triazol-3-one], the IC50 was above 100 µM on CYP2D6; 37.5 ± 6.8 µM against CYP2C9; above 100 µM at CYP1A2; 43.1 ± 15 µM on CYP2C19; 0.29 ± 0.01 µM at CYP3A4. The “IC50 (minimum concentration to bring about 50% inhibition)” value in the data set on Aspergillus fumigatus (setting [3]) is 0.25; in the data set on Candida parapsilosis, 0.06; in the data set on Candida albicans [1] (Candida albicans strain gen-45), “≦0.03 mg/ml”; with Candida glabrata, 500 µg/mL (≈ 784 µM).

For the molecule `CCC(C)n1ncn(-c2ccc(N3CCN(c4ccc(OCC5COC(Cn6cncn6)(c6ccc(Cl)cc6Cl)O5)cc4)CC3)cc2)c1=O` (centres unmarked) [Itraconazole, reference compound], the IC50 is above 100 µM on CYP2D6; 1.6 ± 0.2 µM at CYP2C9; above 100 µM on CYP1A2; 0.2 ± 0.06 µM on CYP2C19; 1000 µg/mL (≈ 1420 µM) with Aspergillus fumigatus (read-out: IC50 (minimum concentration to bring about 50% inhibition), Aspergillus fumigatus strain 34); 250 µg/mL (≈ 354 µM) in the data set with Aspergillus fumigatus (read-out: IC50 (minimum concentration to bring about 50% inhibition), Aspergillus fumigatus strain 99-2135). In addition, the IC50 with Candida parapsilosis (Lodderomyces parapsilosis, ATCC22019, read-out: IC50 (minimum concentration to bring about 50% inhibition)) is 120 µg/mL (≈ 170 µM); in the data set on Candida albicans [1] (Candida albicans, read-out: IC50 (minimum concentration to bring about 50% inhibition)) it was at most 30 µg/mL; in the data set on Candida glabrata (Nakaseomyces glabratus, read-out: IC50 (minimum concentration to bring about 50% inhibition)), 500 µg/mL (≈ 709 µM). Further, the “Surviving mice 21 days after infection” value in the data set on Candida albicans [2] (setting [4]) was found to be 0%. Besides, the “Average survival (days) ± S.D.” value in the data set with Candida albicans [2] (setting [4]) is 9.2 ± 1.1 days.

On to “cis(±)-4-{4-[4-{4-[2-(pyridin-2-yl)-2-(1H-1,2,4-triazol-1-ylmethyl)-1,3-dioxolan-4-yl-methoxy]phenyl}-1-piperazinyl]-phenyl}-2-(1-(R,S)methylpropyl)-2,4-dihydro-3H-1,2,4-triazol-3-one [Example 9]”, for which the IC50 on CYP2D6 was above 100 µM; on CYP2C9, 54.1 ± 5.2 µM; against CYP1A2 it was above 100 µM; against CYP2C19, 40.7 ± 12.7 µM; at CYP3A4, 0.22 ± 0.05 µM. The “IC50 (minimum concentration to bring about 50% inhibition)” value in the data set on Aspergillus fumigatus (Aspergillus fumigatus strain 34) is 0.25; with Aspergillus fumigatus (setting [3]) it was 0.25; in the data set on Candida parapsilosis, “≦0.03 mg/ml”; in the data set with Candida albicans [1] (Candida albicans strain 21) it was 39000 µg/mL; in the data set with Candida albicans [1] (Candida albicans strain gen-45), “≦0.03 mg/ml”; in the data set with Candida glabrata, 1000 µg/mL. The “Surviving mice 21 days after infection” value with Candida albicans [2] (setting [5]) is given as 0%; in the data set with Candida albicans [2] (setting [4]) it was 10%. Besides, the “Average survival (days) ± S.D.” value in the data set with Candida albicans [2] (setting [5]) is given as 6.6 ± 0.8 days; in the data set on Candida albicans [2] (setting [4]) it was 9.1 ± 1.5 days.

(Values after patent US7427620B2, “Azole derivative useful as antifungal agents with reduced interaction with metabolic cytochromes” (Italfarmaco SPA, priority 2003, dated 2008).)
